Patent publication US9708334B2, “Substituted 2,4,5,6-tetrahydropyrrolo[3,4-c]pyrazole and 4,5,6,7-tetrahydro-2H-pyrazolo[4,3-c]pyridine compounds as GlyT1 inhibitors” (DART NEUROSCIENCE (CAYMAN) LTD., priority 2014, dated 2017)

Molecular target: T1, GlyT1 (Homo sapiens, UniProt P48067)
T1 construct: expressed in transfected cells
T1 sequence (P48067 1-706): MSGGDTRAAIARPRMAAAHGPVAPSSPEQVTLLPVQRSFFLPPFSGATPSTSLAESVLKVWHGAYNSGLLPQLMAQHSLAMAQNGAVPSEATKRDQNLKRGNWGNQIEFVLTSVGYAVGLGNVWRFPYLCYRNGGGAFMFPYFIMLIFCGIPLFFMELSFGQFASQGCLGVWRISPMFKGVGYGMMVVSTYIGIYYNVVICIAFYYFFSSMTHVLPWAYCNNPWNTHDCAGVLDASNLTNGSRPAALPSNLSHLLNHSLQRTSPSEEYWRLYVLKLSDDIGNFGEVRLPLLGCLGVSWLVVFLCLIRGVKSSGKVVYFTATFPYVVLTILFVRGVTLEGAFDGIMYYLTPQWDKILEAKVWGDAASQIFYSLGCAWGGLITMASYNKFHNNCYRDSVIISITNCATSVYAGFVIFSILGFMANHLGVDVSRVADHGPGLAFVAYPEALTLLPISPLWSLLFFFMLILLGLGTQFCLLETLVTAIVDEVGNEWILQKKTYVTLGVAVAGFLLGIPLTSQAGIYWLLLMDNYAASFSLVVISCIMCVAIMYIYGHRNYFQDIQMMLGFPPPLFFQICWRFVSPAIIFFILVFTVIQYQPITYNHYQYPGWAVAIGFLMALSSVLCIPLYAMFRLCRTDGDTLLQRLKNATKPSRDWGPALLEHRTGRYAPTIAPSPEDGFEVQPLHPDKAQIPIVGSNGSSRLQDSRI
Assay: Glycine Transporter 1 (GlyT1) uptake assay, scintillation proximity assay of [14C]-glycine uptake
Type: cell-based
Settings: SPA, four parameter logistic fit, read-out: GlyT1 (pIC50) (converted)
How it was run: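 IC50 values derive from four-parameter logistic curves fitted to dose-response data. Uptake of [14C]-glycine measured in scintillation proximity format.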

Row | SMILES | IC50 [nM]
1 | CS(=O)(=O)c1ccc(-c2cccc(F)c2)c(C(=O)N2Cc3cnn(CC4CC4(F)F)c3C2)c1 (stereo not shown) [Example 454, 1-[(2 2-Difluorocyclopropyl)methyl]-5-[2-(3-fluorophenyl)-5-methanesulfonylbenzoyl]-1H 4H 5H 6H-pyrrolo[3,4-c]pyrazole] | 1000 to 10000
2 | C[C@H](Oc1ccc(S(C)(=O)=O)cc1C(=O)N1Cc2cn(CC3CC3(F)F)nc2C1)C(F)(F)F (stereo partly drawn) [Example 455, 2-[(2 2-Difluorocyclopropyl)methyl]-5-(5-methanesulfonyl-2-{[(2S)-1 1 1-trifluoropropan-2-yl]oxy}benzoyl)-2H 4H 5H 6H-pyrrolo[3,4-c]pyrazole] | < 100
3 | CC(C)Oc1ccc(C#N)cc1C(=O)N1Cc2cn(CC3CC3(F)F)nc2C1 (stereo not shown) [Example 456, 3-{2-[(2 2-Difluorocyclopropyl)methyl]-2H 4H 5H 6H-pyrrolo[3,4-c]pyrazole-5-carbonyl}-4-(propan-2-yloxy)benzonitrile] | 100 to 1000
4 | C[C@H](Oc1ccc(C#N)cc1C(=O)N1Cc2cn(CC3CC3(F)F)nc2C1)C(F)(F)F (stereo partly drawn) [Example 457, 3-{2-[(2 2-Difluorocyclopropyl)methyl]-2H 4H 5H 6H-pyrrolo[3,4-c]pyrazole-5-carbonyl}-4-{[(2S)-1 1 1-trifluoropropan-2-yl]oxy}benzonitrile] | 100 to 1000
5 | C[C@H](Oc1ccc(C#N)cc1C(=O)N1Cc2cnn(C3CCOCC3)c2C1)C(F)(F)F [Example 458, 3-[1-(Oxan-4-yl)-1H 4H 5H 6H-pyrrolo[3,4-c]pyrazole-5-carbonyl]-4-{[(2S)-1 1 1-trifluoropropan-2-yl]oxy}benzonitrile] | > 10000
6 | CC(C)Oc1ccc(C#N)cc1C(=O)N1Cc2cn(-c3ccnc(C4CCC4)c3)nc2C1 [Example 459, 3-[2-(2-Cyclobutylpyridin-4-yl)-2H 4H 5H 6H-pyrrolo[3,4-c]pyrazole-5-carbonyl]-4-(propan-2-yloxy)benzonitrile] | < 100
7 | C[C@H](Oc1ccc(C#N)cc1C(=O)N1Cc2cn(-c3ccnc(C4CCC4)c3)nc2C1)C(F)(F)F [Example 460, 3-[2-(2-Cyclobutylpyridin-4-yl)-2H 4H 5H 6H-pyrrolo[3,4-c]pyrazole-5-carbonyl]-4-{[(2S)-1 1 1-trifluoropropan-2-yl]oxy}benzonitrile] | < 100
8 | CC(C)Oc1ccc(S(C)(=O)=O)cc1C(=O)N1Cc2cn(CC3CC(F)(F)C3)nc2C1 [Example 461, 2-[(3 3-Difluorocyclobutyl)methyl]-5-[5-methanesulfonyl-2-(propan-2-yloxy)benzoyl]-2H 4H 5H 6H-pyrrolo[3,4-c]pyrazole] | < 100
9 | C[C@H](Oc1ccc(C#N)cc1C(=O)N1Cc2cn(CC3CC(F)(F)C3)nc2C1)C(F)(F)F [Example 462, 3-{2-[(3 3-Difluorocyclobutyl)methyl]-2H 4H 5H 6H-pyrrolo[3,4-c]pyrazole-5-carbonyl}-4-{[(2S)-1 1 1-trifluoropropan-2-yl]oxy}benzonitrile] | 100 to 1000
10 | C[C@H](Oc1ccc(S(C)(=O)=O)cc1C(=O)N1Cc2cn(CC3CC(F)(F)C3)nc2C1)C(F)(F)F [Example 463] | < 100
11 | CS(=O)(=O)c1ccc(-c2cccc(F)c2)c(C(=O)N2Cc3cn(CC4CC(F)(F)C4)nc3C2)c1 [Example 464, 2-[(3 3-Difluorocyclobutyl)methyl]-5-[2-(3-fluorophenyl)-5-methanesulfonylbenzoyl]-2H 4H 5H 6H-pyrrolo[3,4-c]pyrazole] | < 100
12 | C[C@H](Oc1ccc(C#N)cc1C(=O)N1Cc2cn(-c3ccc(C#N)nc3)nc2C1)C(F)(F)F [Example 465, 5-[5-(5-Cyano-2-{[(2S)-1 1 1-trifluoropropan-2-yl]oxy}benzoyl)-2H 4H 5H 6H-pyrrolo[3,4-c]pyrazol-2-yl]pyridine-2-carbonitrile] | 100 to 1000
13 | CC(C)Oc1ccc(C#N)cc1C(=O)N1Cc2cn(-c3ccc(C#N)nc3)nc2C1 [Example 466] | 100 to 1000
14 | C[C@H](Oc1ccc(C#N)cc1C(=O)N1Cc2cn(-c3ccnc(C#N)c3)nc2C1)C(F)(F)F [Example 467, 4-[5-(5-Cyano-2-{[(2S)-1 1 1-trifluoropropan-2-yl]oxy}benzoyl)-2H 4H 5H 6H-pyrrolo[3,4-c]pyrazol-2-yl]pyridine-2-carbonitrile] | 100 to 1000
15 | CC(C)Oc1ccc(C#N)cc1C(=O)N1Cc2cn(-c3ccnc(C#N)c3)nc2C1 [Example 468, 4-{5-[5-Cyano-2-(propan-2-yloxy)benzoyl]-2H 4H 5H 6H-pyrrolo[3,4-c]pyrazol-2-yl}pyridine-2-carbonitrile] | 100 to 1000
16 | CS(=O)(=O)c1ccc(-c2cccc(F)c2)c(C(=O)N2Cc3cn(C4CCC(F)(F)CC4)nc3C2)c1 [Example 469, 2-(4 4-Difluorocyclohexyl)-5-[2-(3-fluorophenyl)-5-methanesulfonylbenzoyl]-2H 4H 5H 6H-pyrrolo[3,4-c]pyrazole] | < 100
17 | CC(C)Oc1ccc(S(C)(=O)=O)cc1C(=O)N1Cc2cn(C3CCC(F)(F)CC3)nc2C1 [Example 470, 2-(4 4-Difluorocyclohexyl)-5-[5-methanesulfonyl-2-(propan-2-yloxy)benzoyl]-2H 4H 5H 6H-pyrrolo[3,4-c]pyrazole] | < 100
18 | C[C@H](Oc1ccc(S(C)(=O)=O)cc1C(=O)N1Cc2cn(C3CCC(F)(F)CC3)nc2C1)C(F)(F)F [Example 471, 2-(4 4-Difluorocyclohexyl)-5-(5-methanesulfonyl-2-{[(2S)-1 1 1-trifluoropropan-2-yl]oxy}benzoyl)-2H 4H 5H 6H-pyrrolo[3,4-c]pyrazole] | < 100
19 | C[C@H](Oc1ccc(C#N)cc1C(=O)N1Cc2cn(C3CCC(F)(F)CC3)nc2C1)C(F)(F)F [Example 472, 3-[2-(4 4-Difluorocyclohexyl)-2H 4H 5H 6H-pyrrolo[3,4-c]pyrazole-5-carbonyl]-4-{[(2S)-1 1 1-trifluoropropan-2-yl]oxy}benzonitrile] | 100 to 1000
20 | COc1c(C#N)ccc(OC(C)C(F)(F)F)c1C(=O)N1CCc2nn(-c3ccc(F)cc3)c(C)c2C1 (stereo not shown) [Example 473, 3-[2-(4-Fluorophenyl)-3-methyl-2H 4H 5H 6H 7H-pyrazolo[4,3-c]pyridine-5-carbonyl]-2-methoxy-4-[(1 1 1-trifluoropropan-2-yl)oxy]benzonitrile] | > 10000
21 | COc1c(C#N)ccc(OC(C)C(F)(F)F)c1C(=O)N1Cc2cnn(-c3ccc(F)cc3)c2C(C)(C)C1 (stereo not shown) [Example 474, 3-[1-(4-Fluorophenyl)-7 7-dimethyl-1H 4H 5H 6H 7H-pyrazolo[4,3-c]pyridine-5-carbonyl]-2-methoxy-4-[(1 1 1-trifluoropropan-2-yl)oxy]benzonitrile] | 1000 to 10000
22 | COc1c(C#N)ccc(OCC2(C)CC2)c1C(=O)N1CCc2nn(-c3ccc(F)cc3)cc2C1 [Example 475, 3-[2-(4-Fluorophenyl)-2H 4H 5H 6H 7H-pyrazolo[4,3-c]pyridine-5-carbonyl]-2-methoxy-4-[(1-methylcyclopropyl)methoxy]benzonitrile] | > 10000
23 | COc1c(C#N)ccc(OCC2(C(F)(F)F)CC2)c1C(=O)N1CCc2nn(-c3ccc(F)cc3)cc2C1 [Example 476, 3-[2-(4-Fluorophenyl)-2H 4H 5H 6H 7H-pyrazolo[4,3-c]pyridine-5-carbonyl]-2-methoxy-4-{[1-(trifluoromethyl)cyclopropyl]methoxy}benzonitrile] | 1000 to 10000
24 | CC(C)(Oc1ccc(S(C)(=O)=O)cc1C(=O)N1Cc2cn(-c3ccc(F)cc3)nc2C1)C(F)(F)F [Example 477, 2-(4-Fluorophenyl)-5-{5-methanesulfonyl-2-[(1 1 1-trifluoro-2-methylpropan-2-yl)oxy]benzoyl}-2H 4H 5H 6H-pyrrolo[3,4-c]pyrazole] | > 10000
25 | CNC(=O)c1ccc(OC(C)C(F)(F)F)c(C(=O)N2CCc3nn(-c4ccc(F)cc4)cc3C2)c1Cl (stereo not shown) [Example 478, 2-Chloro-3-[2-(4-fluorophenyl)-2H 4H 5H 6H 7H-pyrazolo[4,3-c]pyridine-5-carbonyl]-N-methyl-4-[(1 1 1-trifluoropropan-2-yl)oxy]benzamide] | < 100
26 | COc1c(C(=O)N2CCC2)ccc(OC(C)C(F)(F)F)c1C(=O)N1CCc2nn(-c3ccc(F)cc3)cc2C1 (stereo not shown) [Example 479, 1-{3-[2-(4-Fluorophenyl)-2H 4H 5H 6H 7H-pyrazolo[4,3-c]pyridine-5-carbonyl]-2-methoxy-4-[(1 1 1-trifluoropropan-2-yl)oxy]benzoyl}azetidine] | < 100
27 | CNC(=O)c1ccc(OC(C)C(F)(F)F)c(C(=O)N2CCc3nn(-c4ccc(F)cc4)cc3C2)c1OC (stereo not shown) [Example 480, 3-[2-(4-Fluorophenyl)-2H 4H 5H 6H 7H-pyrazolo[4,3-c]pyridine-5-carbonyl]-2-methoxy-N-methyl-4-[(1 1 1-trifluoropropan-2-yl)oxy]benzamide] | 100 to 1000
28 | CC(Oc1ccc(C(=O)N2CCC2)cc1C(=O)N1CCc2nn(-c3ccc(F)cc3)cc2C1)C(F)(F)F (stereo not shown) [Example 481, 1-{3-[2-(4-Fluorophenyl)-2H 4H 5H 6H 7H-pyrazolo[4,3-c]pyridine-5-carbonyl]-4-[(1 1 1-trifluoropropan-2-yl)oxy]benzoyl}azetidine] | > 10000
